Assay results taken from patent US7585859B2, “PDE4B inhibitors and uses therefor” (Plexxikon, Inc., priority 2004, dated 2009).

Experiments:
PDE4D = target: T1, PDE4D (Homo sapiens, UniProt Q08499); test: PDE4 IC50 determination by Scintillation Proximity Assay, PDE4D; type: biochemical; settings: Table 3A, Formula III compounds; read-out: IC50 PDE4D
T1 construct: PDE4D: The catalytic domain of human PDE4B from S3 16-V692; His6 (N); thrombin cleavage site (N); made in house; host or cells: E. coli
T1 sequence (Q08499 380-756): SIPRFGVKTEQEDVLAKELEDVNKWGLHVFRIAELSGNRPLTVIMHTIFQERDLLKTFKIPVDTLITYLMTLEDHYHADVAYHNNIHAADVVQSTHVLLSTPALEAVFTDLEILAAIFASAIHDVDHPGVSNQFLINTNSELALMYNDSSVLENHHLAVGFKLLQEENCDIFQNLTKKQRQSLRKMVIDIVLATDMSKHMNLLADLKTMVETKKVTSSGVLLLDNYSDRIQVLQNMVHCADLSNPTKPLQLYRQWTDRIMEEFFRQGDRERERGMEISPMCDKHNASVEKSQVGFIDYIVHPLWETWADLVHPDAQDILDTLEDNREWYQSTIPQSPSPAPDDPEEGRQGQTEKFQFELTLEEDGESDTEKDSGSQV
Summary of the method: (§1)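 Hydrolysis of [^3H]cAMP measured by SPA with yttrium silicate beads, which bind the [^3H]AMP product strongly and cAMP weakly. Enzyme at 80 ng/ml for PDE4B, 4 ng/ml for PDE4D; 30 min at 30°.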

[1] = target: T2, PDE4B: The catalytic domain of human PDE4B from S152-S528 (Homo sapiens, UniProt Q07343); test: PDE4 IC50 determination by Scintillation Proximity Assay, PDE4B; type: biochemical; settings: Table 3A, Formula III compounds; read-out: IC50 PDE4B
T2 construct: His6 (N); thrombin cleavage site (N); made in house; host or cells: E. coli
T2 sequence (Q07343 with tags, fused parts or gaps): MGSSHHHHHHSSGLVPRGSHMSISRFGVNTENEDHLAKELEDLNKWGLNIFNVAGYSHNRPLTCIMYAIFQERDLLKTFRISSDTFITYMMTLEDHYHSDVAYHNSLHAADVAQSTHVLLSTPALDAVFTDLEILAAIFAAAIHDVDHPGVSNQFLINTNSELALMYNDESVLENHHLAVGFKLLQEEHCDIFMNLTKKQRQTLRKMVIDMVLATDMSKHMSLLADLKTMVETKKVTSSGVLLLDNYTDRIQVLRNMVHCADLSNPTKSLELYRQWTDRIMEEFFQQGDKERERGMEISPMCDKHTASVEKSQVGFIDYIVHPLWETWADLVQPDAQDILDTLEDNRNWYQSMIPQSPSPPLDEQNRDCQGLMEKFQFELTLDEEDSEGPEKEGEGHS
Summary of the method: as §1

Compound	IC50 (PDE4D) [µM]	IC50 [1] [µM]
COc1cc(NS(=O)(=O)c2cccs2)c2ncccc2c1 [Compound 3-13, Thiophene-2-sulfonic acid (6-methoxy-quinolin-8-yl)-amide]	> 10	> 10
COc1cc(NS(=O)(=O)c2ccc(-c3ccnc(SC)n3)s2)c2ncccc2c1 [Compound 3-14, 5-(2-Methylsulfanyl-pyrimidin-4-yl)-thiophene-2-sulfonic acid (6-methoxy-quinolin-8-yl)-amide]	< 10	< 10
CSc1nccc(-c2ccc(S(=O)(=O)Nc3c(C)ccc4cccnc34)s2)n1 [Compound 3-15, 5-(2-Methylsulfanyl-pyrimidin-4-yl)-thiophene-2-sulfonic acid (7-methyl-quinolin-8-yl)-amide]	> 10	> 10
CSc1nccc(-c2ccc(S(=O)(=O)Nc3cccc4cccnc34)s2)n1 [Compound 3-16, 5-(2-Methylsulfanyl-pyrimidin-4-yl)-thiophene-2-sulfonic acid quinolin-8-ylamide]	< 10	< 10
Cn1nc(-c2ccc(S(=O)(=O)Nc3cccc4cccnc34)s2)cc1C(F)(F)F [Compound 3-20, 5-(1-Methyl-5-trifluoromethyl-1H-pyrazol-3-yl)-thiophene-2-sulfonic acid quinolin-8-ylamide]	> 10	> 10
COc1cc(NS(=O)(=O)c2ccc(-c3cc(C(F)(F)F)n(C)n3)s2)c2ncccc2c1 [Compound 3-21, 5-(1-Methyl-5-trifluoromethyl-1H-pyrazol-3-yl)-thiophene-2-sulfonic acid (6-methoxy-quinolin-8-yl)-amide]	> 10	> 10
Cc1ccc2cccnc2c1NS(=O)(=O)c1ccc(-c2cc(C(F)(F)F)n(C)n2)s1 [Compound 3-22, 5-(1-Methyl-5-trifluoromethyl-1H-pyrazol-3-yl)-thiophene-2-sulfonic acid (7-methyl-quinolin-8-yl)-amide]	> 10	> 10
O=S(=O)(Nc1cccc2cccnc12)c1ccc(-c2ccon2)s1 [Compound 3-23, 5-Isoxazol-3-yl-thiophene-2-sulfonic acid quinolin-8-ylamide]	> 10	> 10
Cc1ccc2cccnc2c1NS(=O)(=O)c1ccc(-c2ccon2)s1 [Compound 3-24, 5-Isoxazol-3-yl-thiophene-2-sulfonic acid (7-methyl-quinolin-8-yl)-amide]	> 10	> 10
COc1cc(NS(=O)(=O)c2ccc(-c3ccon3)s2)c2ncccc2c1 [Compound 3-25, 5-Isoxazol-3-yl-thiophene-2-sulfonic acid (6-methoxy-quinolin-8-yl)-amide]	> 10	> 10
Cc1ccc2cccnc2c1NS(=O)(=O)c1ccc(-c2cc(C(F)(F)F)on2)s1 [Compound 3-26, 5-(5-Trifluoromethyl-isoxazol-3-yl)-thiophene-2-sulfonic acid (7-methyl-quinolin-8-yl)-amide]	> 10	> 10
COc1cc(NS(=O)(=O)c2ccc(-c3cc(C(F)(F)F)on3)s2)c2ncccc2c1 [Compound 3-27, 5-(5-Trifluoromethyl-isoxazol-3-yl)-thiophene-2-sulfonic acid (6-methoxy-quinolin-8-yl)-amide]	> 10	> 10
O=S(=O)(Nc1cccc2cccnc12)c1ccc(-c2cc(C(F)(F)F)on2)s1 [Compound 3-28, 5-(5-Trifluoromethyl-isoxazol-3-yl)-thiophene-2-sulfonic acid quinolin-8-ylamide]	> 10	> 10
Cc1ccc2cccnc2c1NS(=O)(=O)c1ccc(-c2ccccn2)s1 [Compound 3-29, 5-Pyridin-2-yl-thiophene-2-sulfonic acid (7-methyl-quinolin-8-yl)-amide]	> 10	> 10
O=S(=O)(Nc1cccc2cccnc12)c1ccc(-c2ccccn2)s1 [Compound 3-30, 5-Pyridin-2-yl-thiophene-2-sulfonic acid quinolin-8-ylamide]	> 10	> 10
COc1cc(NS(=O)(=O)c2ccc(-c3ccccn3)s2)c2ncccc2c1 [Compound 3-31, 5-Pyridin-2-yl-thiophene-2-sulfonic acid (6-methoxy-quinolin-8-yl)-amide]	> 10	< 10
O=C(NCc1ccc(S(=O)(=O)Nc2cccc3cccnc23)s1)c1ccccc1 [Compound 3-32, N-[5-(Quinolin-8-ylsulfamoyl)-thiophen-2-ylmethyl]-benzamide]	> 10	> 10
Cc1nc(-c2ccc(S(=O)(=O)Nc3cccc4cccnc34)s2)cs1 [Compound 3-33, 5-(2-Methyl-thiazol-4-yl)-thiophene-2-sulfonic acid quinolin-8-ylamide]	< 10	< 10
O=S(=O)(Nc1cccc2cccnc12)c1ccc(-c2cnco2)s1 [Compound 3-34, 5-Oxazol-5-yl-thiophene-2-sulfonic acid quinolin-8-ylamide]	< 10	< 10
O=S(=O)(Nc1cccc2cccnc12)c1cc(S(=O)(=O)c2ccccc2)cs1 [Compound 3-37, 4-Benzenesulfonyl-thiophene-2-sulfonic acid quinolin-8-ylamide]	> 10	> 10
Cc1ccc2cccnc2c1NS(=O)(=O)c1ccc(S(=O)(=O)c2ccccc2)s1 [Compound 3-38, 5-Benzenesulfonyl-thiophene-2-sulfonic acid (7-methyl-quinolin-8-yl)-amide]	> 10	> 10
Cc1ccc2cccnc2c1NS(=O)(=O)c1cc(S(=O)(=O)c2ccccc2)cs1 [Compound 3-39, 4-Benzenesulfonyl-thiophene-2-sulfonic acid (7-methyl-quinolin-8-yl)-amide]	> 10	> 10
O=S(=O)(Nc1cccc2cccnc12)c1ccc(S(=O)(=O)c2ccccc2)s1 [Compound 3-40, 5-Benzenesulfonyl-thiophene-2-sulfonic acid quinolin-8-ylamide]	> 10	> 10
COc1cc(NS(=O)(=O)c2ccc(S(=O)(=O)c3ccccc3)s2)c2ncccc2c1 [Compound 3-41, 5-Benzenesulfonyl-thiophene-2-sulfonic acid (6-methoxy-quinolin-8-yl)-amide]	> 10	< 10
O=S(=O)(c1ccc(Br)s1)N(c1cccc2cccnc12)S(=O)(=O)c1ccc(Br)s1 [Compound 3-42]	> 10	> 10
COC(=O)c1ccc(S(=O)(=O)Nc2c(C)ccc3cccnc23)o1 [Compound 3-43, 5-(7-Methyl-quinolin-8-ylsulfamoyl)-furan-2-carboxylic acid methyl ester]	> 10	> 10
COC(=O)c1ccc(S(=O)(=O)Nc2cccc3cccnc23)o1 [Compound 3-44, 5-(Quinolin-8-ylsulfamoyl)-furan-2-carboxylic acid methyl ester]	> 10	> 10
COC(=O)c1ccc(S(=O)(=O)Nc2cc(OC)cc3cccnc23)o1 [Compound 3-45, 5-(6-Methoxy-quinolin-8-ylsulfamoyl)-furan-2-carboxylic acid methyl ester]	> 10	> 10
Cc1ccc(S(=O)(=O)Nc2cccc3cccnc23)cc1 [Compound 3-46, 4-Methyl-N-quinolin-8-yl-benzenesulfonamide]	> 10	> 10
